Results published in US6858580B2, “Mixtures of drug-oligomer conjugates comprising polyalkylene glycol, uses thereof, and methods of making same” (Nobex Corporation, priority 2001, dated 2005).

Assays:
[1] = Enzymatic stability: chymotrypsin digest of calcitonin-oligomer conjugates; format: in vitro ADME
Method: Compounds, supplied as lyophilized powders, are resuspended in 10 mM phosphate buffer pH 7.4 and then submitted for concentration determination by HPLC. The phosphate buffer is used to create a solution with a pH that is optimum for activity of each particular gut enzyme. Aliquots of the compound thus prepared are transferred to 1.7 mL microcentrifuge tubes and shaken in a 37° C. water bath for 15 minutes to allow compounds to equilibrate to temperature. After 15 minutes, 2 μL of the appropriate concentrated gut enzyme is added to each tube to achieve the final concentration desired. Chymotrypsin and trypsin are resuspended in 1 mM HCl. Also, as a control, compounds are treated with 2 μL of 1 mM HCl. Immediately following additions, 100 μL of sample is removed from the control tube and quenched with either 25 μL of chymotrypsin/trypsin quenching solution (1:1 1% TFA:Isopropanol). This sample will serve as T=0 min. A sampling procedure is repeated at various time intervals depending on the gut enzyme used. […] Trypsin has 30, 60, 120 and 180 minute samples. Once all points have been acquired, a final sample is removed from the control tube to make sure that observed degradation is not temperature or buffer related. […] RP-BPLC (acetonitrile gradient) is used to determine AUC for each sample and % degradation is calculated based from the T=0 min control. […]

[2] = test system: normal fasted beagle dogs; experiment: Activity and inter-subject variability, oral liquid formulation, fasted beagle dogs; format: in vivo; settings: 0.25 mg/kg oral liquid, fasted beagles, blood glucose
Description: As yet another example, a substantially monodispersed mixture of drug-oligomer conjugates preferably has an inter-subject variability that is less than the inter-subject variability of a polydispersed mixture of drug-oligomer conjugates having the same number average molecular weight as the substantially monodispersed mixture. As will be understood by those skilled in the art, the number average molecular weight of the substantially monodispersed mixture and the number average weight of the polydispersed mixture may be measured by various methods including, but not limited to, size exclusion chromatography. The inter-subject variability may be measured by various methods as will be understood by those skilled in the art. The inter-subject variability is preferably calculated as follows. The area under a dose response curve (AUC) (i.e., the area between the dose-response curve and a baseline value) is determined for each subject. The average AUC for all subjects is determined by summing the AUCs of each subject and dividing the sum by the number of subjects. The absolute value of the difference between the subject's AUC and the average AUC is then determined for each subject. The absolute values of the differences obtained are then summed to give a value that represents the inter-subject variability. Lower values represent lower inter-subject variabilities and higher values represent higher inter-subject variabilities.
An effective animal model for evaluating formulations uses normal fasted beagle dogs. These dogs are given 0.25 mg/kg of insulin conjugates to evaluate the efficacy of various formulations.
The protocol for dog experiments calls for a blood glucose measurement at time zero just before a drug is administered. The oral liquid dosage formulation is then squirted into the back of the dog's mouth. In each case, the dogs received 0.25 mg/kg of this solution. Blood is drawn at 15, 30, 60 and 120 minutes and glucose levels are measured and graphed. The lower the glucose levels, the better the activity of the insulin conjugate.

Male CF-1 mice = experiment: Serum calcium lowering after single oral dose in fasted mice; format: in vivo; settings: single oral dose 2.0 μg/kg, average serum calcium
Method: Male CF-1 mice (Charles River, Raleigh, N.C.) weighing […] were housed in the Nobex vivarium in a light—(L:D cycle of 12:12, lights on at 0600 h), temperature—(21-23° C.), and humidity—(40-60% relative humidity) controlled room. Animals were permitted free access to laboratory chow (PMI Nutrition) and tap water. Mice were allowed to acclimate to housing conditions for 48-72 hours prior to the day of experiment.
Prior to dosing, mice were fasted overnight and water was provided ad libitum. Mice were randomly distributed into groups of five animals per time point and were administered a single oral dose of a PEG7-octyl-sCT, diconjugate (Octyl Di) according to the present invention or salmon calcitonin (sCT or Calcitonin) for comparison purposes. […]
At appropriate time points, mice were ether-anesthetized, the vena cavae exteriorized, and blood samples were obtained via a syringe fitted with a 25-gauge needle. […] Total serum calcium was determined for each animal using a calibrated Vitros DT60 II analyzer.
Serum calcium data were plotted and pharmacokinetic parameters determined via curve-fitting techniques using SigmaPlot software Version 4.1). Means and standard deviations (or standard errors) were calculated and plotted to determine effect differences among dosing groups.

[3] = Enzymatic stability: trypsin digest of calcitonin-oligomer conjugates; format: in vitro ADME; settings: 10 mM phosphate buffer, control tube without enzyme, pH 7.4, Control tube (1 mM HCl, no enzyme)
Method: Compounds, supplied as lyophilized powders, are resuspended in 10 mM phosphate buffer pH 7.4 and then submitted for concentration determination by HPLC. The phosphate buffer is used to create a solution with a pH that is optimum for activity of each particular gut enzyme. Aliquots of the compound thus prepared are transferred to 1.7 mL microcentrifuge tubes and shaken in a 37° C. water bath for 15 minutes to allow compounds to equilibrate to temperature. After 15 minutes, 2 μL of the appropriate concentrated gut enzyme is added to each tube to achieve the final concentration desired. Chymotrypsin and trypsin are resuspended in 1 mM HCl. Also, as a control, compounds are treated with 2 μL of 1 mM HCl. Immediately following additions, 100 μL of sample is removed from the control tube and quenched with either 25 μL of chymotrypsin/trypsin quenching solution (1:1 1% TFA:Isopropanol). This sample will serve as T=0 min. A sampling procedure is repeated at various time intervals depending on the gut enzyme used. Chymotrypsin has 15, 30 and 60 minute samples. Trypsin has 30, 60, 120 and 180 minute samples. Once all points have been acquired, a final sample is removed from the control tube to make sure that observed degradation is not temperature or buffer related. The chymotrypsin and trypsin samples may be collected directly into HPLC vials. RP-BPLC (acetonitrile gradient) is used to determine AUC for each sample and % degradation is calculated based from the T=0 min control. The results are provided below in Tables 1 to 4.

| Compound | activity (glucose lowering) versus polydispersed PEG7AVG-hexyl-insulin, monoconjugate [2] | inter-subject variability versus polydispersed PEG7AVG-hexyl-insulin, monoconjugate [2] | other results |
| --- | --- | --- | --- |
| CC(C)C[C@H](NC(=O)[C@H](CCCCN)NC(=O)CNC(=O)[C@H](CC(C)C)NC(=O)[C@@H](NC(=O)[C@@H]1CSSC[C@H](N)C(=O)N[C@@H](CO)C(=O)N[C@@H](CC(N)=O)C(=O)N[C@@H](CC(C)C)C(=O)N[C@@H](CO)C(=O)N[C@@H]([C@@H](C)O)C(=O)N1)C(C)C)C(=O)N[C@@H](CO)C(=O)N[C@@H](CCC(N)=O)C(=O)N[C@@H](CCC(=O)O)C(=O)N[C@@H](CC(C)C)C(=O)N[C@@H](Cc1c[nH]cn1)C(=O)N[C@@H](CCCCN)C(=O)N[C@@H](CC(C)C)C(=O)N[C@@H](CCC(N)=O)C(=O)N[C@H](C(=O)N[C@@H](Cc1ccc(O)cc1)C(=O)N1CCC[C@H]1C(=O)N[C@@H](CCCNC(=N)N)C(=O)N[C@H](C(=O)N[C@@H](CC(N)=O)C(=O)N[C@H](C(=O)NCC(=O)N[C@@H](CO)C(=O)NCC(=O)N[C@H](C(=O)N1CCC[C@H]1C(N)=O)[C@@H](C)O)[C@@H](C)O)[C@@H](C)O)[C@@H](C)O [Salmon Calcitonin, salmon calcitonin, reference compound] |  |  | remaining at 10 min ([1]; chymotrypsin (0.5 U/mL) in phosphate buffer, pH 7.4, Non-Formulated, time 10 min, pH 7.4, 37° C., read-out: % Remaining Following 0.5 U/mL Chymotrypsin Digest): 73% |
| PEG4-hexyl-insulin, monoconjugate: non-polydispersed mixture of mPEG4-hexyl-insulin, B29 monoconjugates | higher activity | less inter-subject variability |  |
| PEG7-hexyl-insulin, monoconjugate: human insulin monoconjugated at the B29 position with the activated oligomer of Example 18 | higher activity | less inter-subject variability |  |
| COCCOCCOCCOCCOCCOCCOCCOCCCCCCCC(=O)NCCCC[C@H](NC(=O)CNC(=O)[C@H](CC(C)C)NC(=O)[C@@H](NC(=O)[C@@H]1CSSC[C@H](N)C(=O)N[C@@H](CO)C(=O)N[C@@H](CC(N)=O)C(=O)N[C@@H](CC(C)C)C(=O)N[C@@H](CO)C(=O)N[C@@H]([C@@H](C)O)C(=O)N1)C(C)C)C(=O)N[C@@H](CC(C)C)C(=O)N[C@@H](CO)C(=O)N[C@@H](CCC(N)=O)C(=O)N[C@@H](CCC(=O)O)C(=O)N[C@@H](CC(C)C)C(=O)N[C@@H](Cc1c[nH]cn1)C(=O)N[C@@H](CCCCNC(=O)CCCCCCCOCCOCCOCCOCCOCCOCCOCCOC)C(=O)N[C@@H](CC(C)C)C(=O)N[C@@H](CCC(N)=O)C(=O)N[C@H](C(=O)N[C@@H](Cc1ccc(O)cc1)C(=O)N1CCC[C@H]1C(=O)N[C@@H](CCCNC(=N)N)C(=O)N[C@H](C(=O)N[C@@H](CC(N)=O)C(=O)N[C@H](C(=O)NCC(=O)N[C@@H](CO)C(=O)NCC(=O)N[C@H](C(=O)N1CCC[C@H]1C(N)=O)[C@@H](C)O)[C@@H](C)O)[C@@H](C)O)[C@@H](C)O |  |  | remaining at 1 h ([1]; 10 mM phosphate buffer, control tube without enzyme, pH 7.4, Control tube (1 mM HCl, no enzyme), Non-Formulated, time 60 min): 104%; % Baseline Calcium Drop at 2.0 μg/kg dose (Male CF-1 mice): 21.0%; remaining at 1 h ([3]; time 60 min): 103%; remaining at 2 h ([3]; time 120 min): 106%; remaining at 3 h ([3]; time 180 min): 104% |
| PEG10-hexyl-insulin, monoconjugate: non-polydispersed mixture of mPEG10-hexyl-insulin, B29 monoconjugates | higher activity | less inter-subject variability |  |
